ChEMBL document CHEMBL1125229 (J Med Chem, 1991)

Target: Angiotensin-converting enzyme (Homo sapiens, UniProt P12821)
Assay: Compound was tested for its inhibitory potency against angiotensin I converting enzyme.

Angiotensin-converting enzyme, sequence (P12821 whole entry): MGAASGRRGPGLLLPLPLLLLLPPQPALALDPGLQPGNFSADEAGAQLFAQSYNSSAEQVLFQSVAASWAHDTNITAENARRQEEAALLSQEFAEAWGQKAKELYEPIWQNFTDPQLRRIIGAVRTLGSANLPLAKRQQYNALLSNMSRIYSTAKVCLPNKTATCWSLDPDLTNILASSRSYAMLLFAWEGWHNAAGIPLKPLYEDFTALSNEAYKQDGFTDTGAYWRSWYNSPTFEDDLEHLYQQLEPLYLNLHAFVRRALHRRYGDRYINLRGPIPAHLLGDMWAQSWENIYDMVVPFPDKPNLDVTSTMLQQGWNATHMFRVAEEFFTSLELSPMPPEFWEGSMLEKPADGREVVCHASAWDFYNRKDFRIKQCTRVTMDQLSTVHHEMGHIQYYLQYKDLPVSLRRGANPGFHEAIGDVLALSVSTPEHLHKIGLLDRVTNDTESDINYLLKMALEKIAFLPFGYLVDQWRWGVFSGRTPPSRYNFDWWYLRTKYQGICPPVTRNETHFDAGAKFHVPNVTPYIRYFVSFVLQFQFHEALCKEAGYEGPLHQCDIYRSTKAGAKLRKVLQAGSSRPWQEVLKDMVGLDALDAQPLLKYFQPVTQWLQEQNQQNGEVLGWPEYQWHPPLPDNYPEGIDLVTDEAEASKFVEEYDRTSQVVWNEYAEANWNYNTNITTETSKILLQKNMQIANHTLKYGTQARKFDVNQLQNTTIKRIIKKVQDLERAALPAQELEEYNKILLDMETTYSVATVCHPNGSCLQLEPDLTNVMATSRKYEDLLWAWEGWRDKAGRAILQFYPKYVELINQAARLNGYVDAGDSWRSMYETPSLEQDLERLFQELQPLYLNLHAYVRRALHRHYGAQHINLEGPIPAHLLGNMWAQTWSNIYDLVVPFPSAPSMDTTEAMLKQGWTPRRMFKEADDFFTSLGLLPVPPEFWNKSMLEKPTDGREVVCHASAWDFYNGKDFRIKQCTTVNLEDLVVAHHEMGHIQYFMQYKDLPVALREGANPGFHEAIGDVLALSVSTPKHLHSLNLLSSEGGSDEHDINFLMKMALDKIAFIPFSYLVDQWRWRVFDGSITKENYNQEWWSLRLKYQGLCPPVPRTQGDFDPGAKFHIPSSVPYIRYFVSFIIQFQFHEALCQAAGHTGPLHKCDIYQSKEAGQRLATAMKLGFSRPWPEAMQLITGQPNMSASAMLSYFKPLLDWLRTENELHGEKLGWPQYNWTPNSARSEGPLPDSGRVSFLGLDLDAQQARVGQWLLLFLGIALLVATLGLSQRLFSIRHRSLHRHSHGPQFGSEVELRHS

With `O=C(O)C(CCc1ccccc1)NC1Cc2ccccc2[C@H]2CCC[C@@H](C(=O)O)N2C1=O` (stereo partly specified) the Ki was 1.2 nM.
